≈ marks a conversion by molar mass, not a printed value.

As usually defined, the MIC is the smallest concentration in the dilution series that meets the test's criterion for growth inhibition. Read a low MIC as inhibition by little substance.

For series [1], the system named is C. albicans. In words: C. elegans-C. albicans co-inoculation assay, nematode survival. It is filed as in vivo. How it is done: (§1) The procedure for the co-inoculation antifungal compound screen were conducted as previously described (Okoli et al., PLoS ONE, 4:e7025 (2009); Tampakakis et al., Nat Protocols, 3:1925-1931 (2008)), using the C. albicans strain DAY185 (Davis et al., Infect Immun, 68:5953-5959 (2000)) and the C. elegans glp-4;sek-1 double mutant.
(§2) This assay allows simultaneous assessment of a compound's potential toxicity and the ability to promote the survival of the nematode in the presence of C. albicans, including modes of action not traditionally considered in antifungal assays such as impeding a fungal virulence factor or promoting host immune response. We performed a screen of 2,560 natural products representing a fraction of the Analyiticon Discovery compound collection (ac-discovery.com) housed at the Broad Institute of Harvard and MIT (Cambridge, Mass.). […] These natural products identified in the primary screen were retested and confirmed (FIG. 1; Table 1). […] Moreover, although the antifungal effects of some of these saponins have been reported (Sata et al., Biosci Biotechnol Biochem, 62:1904-1911 (1998); Ohtani et al., Phytochem, 33:83-86 (1993)), their efficacy against Candida spp. has not been studied.
After confirmation of these hits, dose response experiments were conducted to determine the concentration that provided maximum nematode survival. The compounds conferred a range of nematode survival from 27% (compound A6) to 93% (compounds A2, A7, A24, and A25), however, with the exception of A6, all compounds conferred a nematode survival over 65% (FIG. 1).

For series [2], the system named is C. albicans strains. In words: MIC by standard CLSI microdilution protocol M27-A. It is filed as cell-based. The procedure:
Using the standard Clinical and Laboratory Standards Institute (CLSI) procedure, the in vitro MIC of these two compounds was determined on the following C. albicans strains: DAY185 (the standard strain used throughout the screen), two fluconazole-resistant strains of C. albicans, and an echinocandin-resistant strain of C. albicans (Table 2).
(§3) The minimal inhibitory concentration (MIC) was determined for strains DAY185, 98-145, 95-120 (White et al., Antimicrob Agents Chemother, 46:1704-1713 (2002)), and A15-10 (Garcia-Effron et al., Antimicrob Agents Chemother, 53:112-122 (2009)) spectrophotometrically using RPMI 1640 media (Mediatech, Inc.) following the standard CLSI microdilution protocol M27-A (National Committee for Clinical Laboratory Standards, Reference method for broth dilution susceptibility testing of yeasts. Tentative standard M27-A, Villanova, Pa. (1995)). Biofilm assays using identified compounds were conducted as previously described (Richard et al., Eukaryot Cell, 4:1493-1502 (2005)). The biofilm dry mass was determined by drying the silicone squares in a chemical hood, and weighing the resulting biofilm mass subtracting the previously weighed mass of the silicone square. Biofilm pictures were captured using a confocal laser microscope (TCS NT, Leica Microsystems). Cells were grown at 30° C., exposed to PS for 30 min, and then washed with PBS.
(In broth dilution the organism is exposed to a series of concentrations in liquid medium.)

Series [3] deals with C. elegans. The series can be described thus: toxicity to the nematode in dose response experiments. As to conditions: dose response experiments, higher concentrations.
Excerpt: as §2
Representatives of the saponins family are able to disrupt cellular membranes and the lytic activity on erythrocytes has been used as an assay for some saponins Francis et al., British Journal of Nutrition, 88:587-605 (2002)). This property is derived from the affinity of some saponins for binding cholesterol forming insoluble pores composed of the sterol and saponins (Bangham et al., Nature, 196:952-953(1962); Glauert et al., Nature, 196:953-955 (1962)). […] The dose-response experiments previously used to determine the EC50 and approximate the MIC can also indicate if the saponins maybe toxic to C. elegans and potentially to mammalian cells.

The test system of series [4] is sheep erythrocytes. In words: hemolysis of sheep erythrocytes. It counts as cell-based. As to conditions: 100 μg/mL. How it is done:
The cytotoxicity for the identified compounds was confirmed as previously described (Breger et al., PLoS Pathog, 3:e18 (2007); Moy et al., Proc Natl Acad Sci USA, 103:10414-10419 (2006)). Hemolysis of sheep erythrocytes (Rockland Immunochemicals) was monitored on a spectrophotometer at A540 with the two natural products A16 and A19 (100 μg/mL) in 2% DMSO. Triton X-100 and DMSO were used as controls.

Series [5] deals with C. albicans strain DAY185. The series can be described thus: in vitro antifungal activity (MIC) in the co-inoculation assay, turbidity read visually. It is filed as cell-based. How it is done:
as §1
The determination of the lowest concentration of the selected compounds showing in vitro antifungal activity was accomplished by following the steps detailed in the co-inoculation assay, using two-fold serial dilutions of the test compounds.

For series [6], the system named is C. albicans biofilm. The series can be described thus: biofilm formation on silicone pads (dry mass). As to conditions: 20 μg/mL (below the MIC), compared with caspofungin. It counts as cell-based. How it is done:
as §3, with “Biofilm pictures were captured using a confocal laser microscope (TCS NT, Leica Microsystems). Cells were grown at 30° C., exposed to PS for 30 min, and then washed with PBS.” left out
Caspofungin (Merck) served as a known antifungal compound control. In vitro hyphal inhibition was assessed by incubation of DAY185 in RPMI 1640 media at 37° C. […] The ability of the antifungal compound A16, at either 2 or 4 μg/mL, to induce osmotic stress was assessed using DAY185 grown in a 96 well microtiter plate containing RPMI 1640 media and NaCl, ranging in concentrations from 0-2 M in 0.25 M increments. The growth of the fungus was measured spectrophotometrically after 48 hours of growth at 35° C.

In series [1] (dose response, C. albicans-infected C. elegans), `C/C=C(/C)C(=O)O[C@H]1CC(C)(C)C[C@H]2C3=CCC4[C@@]5(C)CC[C@H](O[C@@H]6O[C@H](C(=O)O)[C@@H](O[C@@H]7O[C@H](CO)[C@H](O)[C@H](O)[C@H]7O[C@@H]7O[C@H](CO)[C@@H](O)[C@H](O)[C@H]7O)[C@H](O)[C@H]6OC6O[C@@H](C)[C@H](O)[C@@H](O)[C@H]6O)C(C)(C)C5CC[C@@]4(C)[C@]3(C)C[C@@H](O)[C@@]12CO` (some centres unmarked) [A19] yielded a maximum nematode survival of 80%. The EC50 in vivo in series [1] (dose that resulted in 50% survival of C. albicans-infected nematodes) worked out at 26.5 mg/L (≈ 22 µM). Besides, the minimum inhibitory concentration (MIC) in series [2] (C. albicans DAY185) is 32 mg/L (≈ 26.6 µM); in series [2] (echinocandin-resistant strain A15) it was 16 mg/L (≈ 13.3 µM); in series [2] (fluconazole-resistant strain 95-120), 32 mg/L (≈ 26.6 µM); in series [2] (fluconazole-resistant strain 98-145) it was 32 mg/L (≈ 26.6 µM). Moreover, in series [3], the “toxicity to the nematode” value is reported as “none of the concentrations used in the dose response experiment showed signs of toxicity”. The hemolytic activity result in series [4] was “no hemolytic activity”. The compound further came in with an MIC in vitro in series [5] (co-inoculation assay, two-fold serial dilutions, C. albicans DAY185) of 26.5 mg/L (≈ 22 µM). Further, in series [5] (screen / dose response), the “in vitro growth of C. albicans” value is “completely inhibited”. Also, the biofilm formation result in series [6] is reported as “able to inhibit biofilm formation”.

The values are drawn from patent US8987217B2, “Modified saponins for the treatment of fungal infections” (The General Hospital Corporation, priority 2010, dated 2015).
